Experimental findings from US9370510B2, “Small molecule compounds to treat hearing loss” (FATE THERAPEUTICS, INC., priority 2012, dated 2016) are described below.

What all share (type): cell-based, rat
One assay concerns p27. In words: p27 protein levels in hair cell-damaged (tobramycin) cochlear explants by western blot. The conditions noted are these: 3 uM, 24 hours, after 1 mM tobramycin for two days, vs vehicle (DMSO) (FIG. 4). Here is the method:
(§1) Postnatal day 5 rat cochlea were collected and cultured with 1 mM tobramycin for two days to kill hair cells. Cultures were then treated with 3 uM bromo benzyl ellipticinium dissolved in DMSO or DMSO alone (negative control) for 24 hours.
(§2) Cochlear explant extracts were analyzed by western blotting. Detergent-solubilized extracts were electrophoresed on a polyacrylamide gel, and the separated denatured proteins transferred to a PVDF membrane. Antibodies to p27, p57, phosphorylated Histone H3, phosphorylated p130 and the house-keeping gene, β-actin were used with infrared dye-conjugated secondary antibodies and quantified by fluorescence. Levels of p27, p57, phosphorylated Histone H3, and phosphorylated p130 were normalized to the beta-actin signal before comparing treated and control samples.

The test system of assay [1] is hair cell-damaged cochlear explants. In words: cell proliferation (phosphorylated Histone H3) in hair cell-damaged cochlear explants by western blot. The conditions noted are these: 3 uM, 24 hours, after 1 mM tobramycin for two days, vs vehicle (DMSO) (FIG. 4). The method, then: as §1, §2
For assay [2], the system named is hair cell-damaged cochlea/modiolus explants. Put plainly: proliferating supporting cells (BrdU+/Sox2+) in hair cell-damaged cochlea/modiolus explants, confocal microscopy. The conditions noted are these: three days, after 1 mM tobramycin for three days. Here is the method:
Postnatal day 5 rat cochlea cochlea/modiolus explants were collected and cultured with 1 mM tobramycin for three days to kill hair cells. Cultures were then treated for three days with DMSO, 3 uM bromo benzyl ellipticinium, 60 uM CHIR99021, or both. Tissues were fixed with 4% paraformaldehyde, and cochlea were removed from surrounding tissue and immunostained with anti-SOX2 and anti-BrdU antibodies. Whole mount confocal microscopy was used to identify proliferating supporting cells (Brdu+/Sox2+) counted in 300 um of the basal-most cochlea. Cochlea were analyzed in triplicates per treatment group.

Molecules are shown by their SMILES.

With `Cc1c2cc[n+](Cc3ccccc3)cc2c(C)c2c1[nH]c1ccccc12` [bromo benzyl ellipticinium, Bromo Benzyl Ellipticinium], the p27 protein levels entry in the assay with p27 is on record as “reduced”. Also, the cell proliferation result in assay [1] was “increased”. In assay [2] (3 μM), the “BrdU+/Sox2+ ells/300 μm of Basal Cochlea (Mean ± SD, n = 3)” value was 0 ± 0 ells/300 μm.
With `Cc1c[nH]c(-c2cnc(NCCNc3ccc(C#N)cn3)nc2-c2ccc(Cl)cc2Cl)n1` [CHIR99021, reference compound], the “BrdU+/Sox2+ ells/300 μm of Basal Cochlea (Mean ± SD, n = 3)” value in assay [2] (60 μM) amounted to 0 ± 0 ells/300 μm.
